Reference: patent US9931350B2, “Anti-infective and osteogenic compositions and methods of use” (BRIGHAM YOUNG UNIVERSITY, priority 2014, dated 2018)
Values after ≈ are worked out from the molar mass of the structure shown.

Columns and labels:
ectopic bone formation = experiment: Mammalian ectopic bone formation model; assay type: in vivo, mouse
Text: Bone formation was examined by XR (Faxitron) and quantified by microCT (Skyscan 1174). Bone nodules were also examined by histology.

[1] = test system: tobramycin-resistant P. aeruginosa (TRPA); experiment: MIC against tobramycin-resistant P. aeruginosa; assay type: cell-based; conditions: Pseudomonas aeruginosa; TSB, 37° C., 24 hours
Experimental: (§1) Representative Procedure for Measuring MIC Values: A suspension is prepared of bacteria containing ˜10^6CFU (colony forming units)/mL from a culture incubated in TSB at 37° C. for 24 hours. Aliquots of 1 mL of the suspension are added to test tubes containing 1 mL TSB and incrementally varied concentrations of CSA compound. The samples are subjected to stationary incubation at 37° C. for 24 hours. Sample turbidity is determined by measuring absorption at 760 nm (HP 8453 UV-Visible Chemstation, Hewlett Packard). Additionally, an alliquot from each of the samples showing no measurable turbidity is subcultured on TSA plates (alliquots were diluted to provide fewer than 300 CFU). Colonies that grow on the subculture after overnight incubation are counted and the number of CFU/mL in the samples is calculated. The calculated values are compared to the number of CFU/mL in the original inoculum. MIC values are determined as the concentrations of the studied compounds at which the number of CFU/mL remained constant or decreased after incubation for 24 hours. CSA compounds were screened against methicillin-resistant S. aureus (MRSA) and tobramycin-resistant P. aeruginosa (TRPA).

open fracture = experiment: Mammalian open fracture model, without bacteria inoculation; assay type: in vivo, rats
Text: (§2) In this model, infection was initiated by delivery of 10^4 CFU of pathogenic Staphlococcus aureus in ACS at the time of surgery. […] The primary outcome measure was the number of animals culled with infected fractures. Animal health and radiographic bone healing were monitored by an experienced veterinarian in a blinded fashion to inoculation or treatment. Animals diagnosed as having progressively deteriorating condition with XRs showing evidence of infection were culled and infection confirmed by culture swab post-mortem. Secondary outcome measures included union at 3 weeks and 6 weeks (excluding pin-slippage), and bone callus microCT measures at 6 weeks.

Staphlococcus aureus = experiment: Mammalian open fracture model, inoculated with S. aureus; assay type: in vivo, rats
Text: as §2

[2] = test system: methicillin-resistant S. aureus (MRSA); experiment: MIC against methicillin-resistant S. aureus; assay type: cell-based; conditions: Staphylococcus aureus, TSB, 37° C., 24 hours
Experimental: as §1

| SMILES | Mean bone volume by microCT (ectopic bone formation; 25 μg CSA-90 added to 10 μg rhBMP-2 in ACS, P=0.02) | Mean bone volume by microCT (ectopic bone formation; 250 μg CSA-90 added to 10 μg rhBMP-2 in ACS, P<0.01) | Osteoclast number, histological assessment (ectopic bone formation; CSA-90 treatment) | Histological assessment of bone nodules (ectopic bone formation; rhBMP-2 treated groups, CSA-90 treatment alone (250 μg)) | MIC [1] [µg/mL] | Union rate at 3 weeks (open fracture; 3 weeks, treated groups with and without inoculation) [%] | Union rate by 6 weeks (open fracture; 6 weeks) | Pin Slip Cull Rate (open fracture; no bacteria) [%] | Infected Cull Rate (open fracture; no bacteria, 250 μg CSA-90 and/or 10 μg rhBMP-2 via ACS) [%] | # Infected Culls (open fracture; no bacteria, animals/group) | # Pin Slips (open fracture; no bacteria, animals/group) | Pin Slip Cull Rate (Staphlococcus aureus; 10^4 cfu Staph) [%] | Infected Cull Rate (Staphlococcus aureus; 10^4 cfu Staph, 250 μg CSA-90 and/or 10 μg rhBMP-2 via ACS) [%] | # Infected Culls (Staphlococcus aureus; 10^4 cfu Staph, animals/group) | # Pin Slips (Staphlococcus aureus; 10^4 cfu Staph, animals/group) | Animals culled with a pin slip (no infection seen in culture) (Staphlococcus aureus; inoculated group) | Animals culled with infected fractures (Staphlococcus aureus; inoculated with S. aureus) | MIC [2] [µg/mL] |
| --- | --- | --- | --- | --- | --- | --- | --- | --- | --- | --- | --- | --- | --- | --- | --- | --- | --- | --- |
| CCCCCN(CCCCC)CCC[C@@H](C)[C@H]1CC[C@H]2[C@@H]3[C@H](OCCCN)C[C@@H]4C[C@H](OCCCN)CC[C@]4(C)[C@H]3C[C@H](OCCCN)[C@]12C [CSA-90] | significantly increased | significantly increased | no significant decrease | evidence of localized tissue mineralization | 3 (≈ 4.25 µM) | ~50 | increased but not to 100% | 0 | 0 | 0/6 | 0/6 | 20 | 0 | 0/5 | 1/5 | one | no infected culls | 0.6 (≈ 0.851 µM) |
| CCCCCCCCN(CCCCCCCC)CCC[C@@H](C)[C@H]1CC[C@H]2[C@@H]3[C@H](OCCCN)C[C@@H]4C[C@H](OCCCN)CC[C@]4(C)[C@H]3C[C@H](OCCCN)[C@]12C [CSA-91] | – | – | – | – | 6 (≈ 7.6 µM) | – | – | – | – | – | – | – | – | – | – | – | – | 5 (≈ 6.33 µM) |
